Source: publication PMC9579956 (RSC Medicinal Chemistry, 2022)

The compounds below were run against Mycobacterium thermoresistible (Mtr) LpqY (Mycolicibacterium thermoresistibile, UniProt G7CES0). Conditions: single dose MST screen against LpqY.
Type: binding

Sequence of Mycobacterium thermoresistible (Mtr) LpqY (G7CES0 29-471): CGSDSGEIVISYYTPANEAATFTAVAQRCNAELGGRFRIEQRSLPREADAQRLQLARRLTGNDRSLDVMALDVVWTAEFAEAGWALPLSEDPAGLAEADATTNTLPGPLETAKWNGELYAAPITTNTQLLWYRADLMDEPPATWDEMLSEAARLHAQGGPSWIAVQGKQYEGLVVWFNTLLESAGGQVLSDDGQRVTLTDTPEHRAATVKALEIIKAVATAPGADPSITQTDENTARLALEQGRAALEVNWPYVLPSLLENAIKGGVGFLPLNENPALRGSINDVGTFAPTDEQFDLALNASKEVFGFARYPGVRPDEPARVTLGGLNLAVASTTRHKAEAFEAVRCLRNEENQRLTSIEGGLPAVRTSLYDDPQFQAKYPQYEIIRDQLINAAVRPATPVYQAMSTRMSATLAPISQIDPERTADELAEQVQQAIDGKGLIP

First: COc1ccc(-c2cc(NC(=O)c3ccc(F)cc3Cl)ccc2OC)cc1 [MMV676526]
Second: Cc1cccc(NC(=O)c2cc(S(=O)(=O)N(C)c3ccc(F)cc3)ccc2Cl)n1 [MMV676528]
The “Pathogen Box screen signal/noise ratio” value of the first is lower: 0.556 for the first, 1.1 for the second.

First: O=C([C@@H](c1ccc(Cl)cc1)c1cccnc1)N1CCN(c2ccc(C(F)(F)F)cc2)CC1 [MMV689244]
Second: CC(C)(C)OC(=O)N1CCN(c2nccc(-c3ccc(-c4ccc(Cl)cc4)s3)n2)CC1 [MMV688416]
The “Pathogen Box screen signal/noise ratio” value of the first is higher: 1.8 for the first, 0.333 for the second.

First: CO/N=C(\C(=O)OC)c1ccccc1CO/N=C(\C)c1cccc(C(F)(F)F)c1 [MMV688754]
Second: O=C(Nc1ccc(C(F)(F)F)c(C(F)(F)F)c1)c1cc(Cl)ccc1O [MMV687807]
The “Pathogen Box screen signal/noise ratio” value of the first is higher: 1.2 for the first, 0.5 for the second.

First: CN1CCN(c2cc(-c3ccc(F)cc3)nc(-c3ccncc3)n2)CC1 [MMV688888]
Second: O=C(OCc1ccccc1)N1CCC(c2cc(-c3ccncc3)c(-c3ccc(F)cc3)[nH]2)CC1 [MMV688509]
The “Pathogen Box screen signal/noise ratio” value of the first is higher: 2.6 for the first, 0.0833 for the second.

Going from `CC(C)C(C(=O)Nc1ccc(S(=O)(=O)N(C)C)cc1)c1ccc(Cl)cc1` (centres unmarked) [MMV020391] to `CCN(CC)S(=O)(=O)c1ccc(Cl)c(C(=O)Nc2ccc3nc(C)sc3c2)c1` [MMV019721], the “Pathogen Box screen signal/noise ratio” value rises from 0.25 to 1.3.

Compared with `Nc1ncnc2[nH]nc(Cc3cccc4ccccc34)c12` [MMV688469], `CC(C)n1nc(-c2cc3c(Cl)cccc3[nH]2)c2c(N)ncnc21` [MMV688417] is higher in “Pathogen Box screen signal/noise ratio” value: 0.357 for the first, 1.3 for the second.

Going from `Cc1ccc2[nH]c3c(NCCN(C)C)ncnc3c2c1` [MMV006372] to `Cc1cnc(CCNC(=O)c2cc(-c3ccc(Cl)cc3)cs2)[nH]1` [MMV676350], the “Pathogen Box screen signal/noise ratio” value rises from 0.333 to 1.3.

`Brc1c(-c2ccc3c(c2)OCO3)nc2ncccn12` [MMV676377] and `Cc1cccc(Cn2ccc(NC(=O)c3ccc4c(c3)OCO4)n2)c1` [MMV676386] are the same in “Pathogen Box screen signal/noise ratio” value: 2.9 for the first, 2.9 for the second.

Going from `CC(Oc1ccccc1)C(=O)Nc1nc(-c2ccccn2)cs1` (centres unmarked) [MMV676411] to `c1ccc(Oc2ccc(-c3cc(C4CCOCC4)[nH]n3)cc2)cc1` [MMV687762], the “Pathogen Box screen signal/noise ratio” value rises from 0.0833 to 0.6.

Going from `COc1ccc(-c2onc(C(F)(F)F)c2-c2ccc(Cl)cc2)c(O)c1` [MMV688766] to `COc1ccc(OC)c(NCc2ccc3nc(N)nc(N)c3c2Cl)c1` [MMV675968], the “Pathogen Box screen signal/noise ratio” value rises from 0.9 to 5.0.

Compared with `COc1ccc(-c2nnc3ccc(-c4cccc(C(C)C)c4)cn23)cc1OC` [MMV688313], `Cc1nn(C)cc1C(C)Nc1nncc(-c2ccc(C(F)(F)F)cc2)n1` (centres unmarked) [MMV019993] is lower in “Pathogen Box screen signal/noise ratio” value: 1.1 for the first, 0.25 for the second.

Compared with `Cc1cc(Nc2ccncc2)n2nc(C)c(-c3ccccc3Cl)c2n1` [MMV016136], `Cc1cc(C)nc(-n2nc(C)cc2Nc2ccccc2)n1` [MMV062221] is lower in “Pathogen Box screen signal/noise ratio” value: 1.7 for the first, 0.8 for the second.

Compared with `COc1cc(OC)cc(C(=O)NCC2Cc3cc(Cl)cc(-c4ccncc4)c3O2)c1` (centres unmarked) [MMV007471], `Cc1cc(C(=O)Nc2cnn(Cc3ccc(Cl)cc3Cl)c2)no1` [MMV009054] is lower in “Pathogen Box screen signal/noise ratio” value: 0.2 for the first, 0.179 for the second.

First: CC(=O)N1CCc2cc3nc(C)cc(C)c3cc21 [MMV054312]
Second: C[C@H]1COc2c(N3CCN(C)CC3)c(F)cc3c(=O)c(C(=O)O)cn1c23 [MMV687798]
The “Pathogen Box screen signal/noise ratio” value of the first is lower: 0.107 for the first, 0.9 for the second.

First: O=C(Nc1c(O)cccc1-c1nc2c(C(=O)O)cccc2o1)c1cc(-c2ccccc2)on1 [MMV676008]
Second: O=C(Nc1ccnc(-c2cccnc2)n1)c1cc(C(F)(F)F)cc(C(F)(F)F)c1 [MMV019838]
The “Pathogen Box screen signal/noise ratio” value of the first is lower: 1.7 for the first, 2.8 for the second.

Compared with `O=C(NC1CC1)c1ccc(CSCc2ccccc2Cl)o1` [MMV007803], `COc1cccn2c(C(=O)N3CCCCC3)c(C(F)(F)F)nc12` [MMV1110498] is higher in “Pathogen Box screen signal/noise ratio” value: 0.148 for the first, 1.5 for the second.
